Test results as given in publication PMC5707064, “Proteoglycan-targeting applied to hypoxia-activated prodrug therapy in chondrosarcoma: first proof-of-concept” (Oncotarget, 2017).
Like-named read-outs stand apart in the source and are kept apart here.

How the values were obtained:
[1] = tested on: HEMC-SS xenograft model; experiment: In vivo antitumor efficacy on HEMC-SS xenograft model; design: species or system SCID mice; conditions: for Antitumor effect (tumor volume vs controls): 6 i.v. injections at 4-day intervals, 8-QA and 8 47.0 μmol/kg, 10-QA 46.7 μmol/kg
Protocol: In vivo studies were carried out on 50 female Severe Combined ImmunoDeficiency (SCID) mice aged 4–5 weeks old (Janvier Labs). All animal studies were carried out in accordance with the directive 2010/63/EU after approval by the institutional review board (C2E2A, authorization #CE85-12).
To obtain in vivo tumors, 10^7 HEMC-SS cells in 100 μL of PBS were injected with 100 μL of Matrigel® (BD Biosiences) subcutaneously into the right flank of the mice.
The antitumor efficiency of 8-QA was first studied respectively to its non-QA equivalent (8) used as negative control for proteoglycan targeting. In a second independent study, we evaluated the antitumor activity of non-hypoxia activated derivative (10-QA) used as negative control of hypoxia activation, respectively to another control group. For both studies, at 21 days post-cell inoculation mice were randomized into three or two groups (10–12 animals per group). Treatment protocol consisted in 6 doses at 4-day intervals injected by i.v route: 8-QA (47.0 μmol/kg) and 10-QA (46.7 μmol/kg)were injected at 50% of Maximum Tolerated Dose (MTD) while non-targeted derivative 8 (47.0 μmol/kg) was injected at equimolar dose of 8-QA. All molecules were diluted in saline with 2% ethanol. Control animals received vehicle according to the same schedule.
Tumor volume (TV) was calculated using the following formula:
TV (mm^3) = [length x (width)^2]/2.
Tumor Growth Inhibition (TGI) was calculated as follows: TGI (%) = [1-(Tn/Cn)] × 100, where Tn is the tumor volume of the treated group at day n and Cn the tumor volume of the control group at day n.
Data are represented as means ± SD. For antitumor efficiency and mouse weight monitoring, statistical significance was determined using two-way ANOVA. For tumor weight, mitosis number and hematological analyses, statistical significance was determined using one-way ANOVA. Both tests were followed by Tukey's post-hoc multiple comparisons test. Results were considered significant at p < 0.05.

[2] = tested on: HEMC-SS xenograft tumors; experiment: Characterization of treated tumors (histology, western blot, immunohistochemistry); type: in vivo, SCID mice; conditions: for γH2AX-positive cells in pimonidazole-positive hypoxic tumor areas: immunostaining on consecutive tumor sections
Protocol: The day after the last dose, 50% of animals of each group were euthanized by CO2 inhalation, and tumors were sampled for histology and immunohistochemistry analyses (n≥3 tumors samples per group of treatment).
Approximately 30 μg of proteins from tumors (n = 3 independent tumor samples per group of treatment) recovered one day after last dose were loaded onto 10% acrylamide gels and separated by SDS-PAGE. Proteins were then transferred to nitrocellulose membranes (Millipore) and incubated with specific primary antibodies p53S15 (Cell Signaling), p21 (Santa Cruz), p-Chk1 (S345) (Cell Signaling) or GAPDH (Santa Cruz) used as housekeeping protein. Antibody-antigen interaction was evidenced by chemiluminescence (Amersham) using HRP-conjugated secondary antibodies (Southern Biotech). Signal was detected and quantified using Image Lab software (BioRad). Data are represented as means ± SD. Statistical significance was determined using one-way ANOVA followed by Tukey's post-hoc multiple comparisons test. Results were considered significant at p < 0.05.
For tumors, the exogenous hypoxia marker pimonidazole hydrochloride (Hypoxyprobe™) was i.p.-injected at 60 mg/kg one hour before mice were euthanized. Tumors were removed, fixed in 10% neutral buffered formalin, and embedded in paraffin. For spheroid cultures, pimonidazole was added at a final concentration of 200 μM two hours before fixation and paraffin-embedding.
Five μm-thick sections were cut and adhered to poly-L-Lysine-coated glass microscope slides. After deparaffinization and rehydration, slides were stained by haematoxylin–eosin (H&E) or Alcian blue (pH 1) to visualize aggrecan or used for immunohistochemistry. After antigen retrieval, endogenous peroxidase quench and saturation, slides were incubated with the primary antibody: anti-Ki 67 (Abcam) rabbit polyclonal antibody (1/2000, 11 hours, RT), anti-pimonidazole (Hypoxyprobe™) mouse monoclonal antibody (1/100, 30 minutes, RT) or anti-phospho-histone-H2AX (Merck Millipore) mouse monoclonal antibody (1/2000, 11 hours, RT). HRP-conjugated rabbit anti-mouse IgG1 secondary antibody (Hypoxyprobe, 1/100, 30 minutes, RT) was used to detect pimonidazole adduct and a biotinylated goat anti-mouse IgG1 secondary antibody (Vector Laboratories, 1/500, 1 hour) was used to detect anti-Ki-67 and anti-phospho-histone-H2AX. Biotin was then complexed with streptavidin-coupled HRP (Vector Laboratories, 1/500, 30 minutes). HRP was detected using a DAB ultravision detection system (Thermo Scientific).

[3] = tested on: human osteosarcoma Saos-2 cells; experiment: Cytotoxic activity on osteosarcoma Saos-2 cells; type: cell-based; conditions: hypoxic conditions, unpublished data of the authors
[4] = Side-effect evaluation (mouse weight, hematology, articular cartilage); type: in vivo, SCID mice; conditions: compared to controls; for Mouse weight loss during treatment: 6 i.v. injections at 4-day intervals
Protocol: To assess side effects, mouse weight was monitored and pathology analyses on healthy articular cartilage and hematological analyses were carried out at 24 hours after the last injection. Approximately 50 μL of blood, obtained by retro-orbital sampling, were analyzed on a Melet Schloesing MS9-5 Hematology Analyzer (n = 5 blood samples per group of treatment) (Diamond diagnostics).
Mouse paws (n = 5 per group of treatment) were fixed in 10% neutral buffer formalin, decalcified with 4.13% EDTA and 0.2% paraformaldehyde in PBS for 96 hours using KOS microwave tissue processor (Milestone), and embedded in paraffin. Then, 4–5-μm thick sections were stained by Toluidine Blue (pH 2.5) to visualize aggrecan or by Masson trichrome to visualize collagen. All images were captured with NanoZoomer (Hamamatsu).

[5] = tested on: aggrecan from bovine articular cartilage; experiment: Surface plasmon resonance (SPR) binding to immobilized aggrecan; conditions: for Binding to aggrecan (sensorgrams): analytes injected at 0.0625-1 mM, 600 seconds; for Kd: steady-state affinity analysis, ligand: immobilized aggrecan, triplicate, read-out: Dissociation constant (KD)
Protocol: SPR assay was carried out on a Biacore T200 instrument (GE Healthcare) with a CM4 sensor chip (GE Healthcare). To immobilize aggrecan from bovine articular cartilage (Sigma-Aldrich), the sensor chip was first activated using a 1:1 mixture of 0.2 M 1-ethyl-3-(3-dimethylaminopropyl)carbodiimide hydrochloride and 0.5 M N-hydroxysuccinimide (amine coupling kit, GE Healthcare) at a flow rate of 5 μL/min for 10 minutes. Aggrecan was then coated on the sensor chip at 400 μg/mL in running buffer HBS-P^+ 1X (0.01 M HEPES, 0.15 M NaCl, 0.05% v/v surfactant p20, pH 7.4) with 6 mM hexadecyltrimethylammoniumbromide (CTAB) at 5 μL/min to a level of ~500 response units. Unoccupied binding sites were blocked using 1 M ethanolamine (pH 8.5) (Amine coupling kit, GE Healthcare) at 5 μL/min during 10 minutes. The studied molecules (analytes) were diluted in running buffer HBS-P^+ 1X before application to the sensor chip at 30 μL/min. Regeneration of the sensor chips was achieved using 2 M NaCl solution during 150 seconds. Dissociation constants (KD) were determined using Biacore T200 Evaluation software with a “steady-state affinity analysis” after injection of five different concentrations of analytes.

[6] = tested on: HEMC-SS spheroids; experiment: In vitro proliferation assay (AlamarBlue), HEMC-SS Day 10 spheroids; type: cell-based, human; conditions: for IC50: Homo sapiens, 24 hours exposure then 48 hours in normoxia; for HCR (hypoxic-cytotoxic ratio) Spheroids: normoxia vs hypoxia IC50
Protocol: To generate HEMC-SS spheroids, cells were harvested from culture flasks by trypsinization and seeded in 96-well non-adherent plates (Nunc) with 100 μL of 0.5% methylcellulose (Bio-Techne) diluted in the corresponding medium at a density of 1000 cells per well. Cultures were maintained in a 5% CO2 humidified environment at 37°C.
(§1) After trypsinization, HEMC-SS cells were seeded in 96-well plates at a density of 20.10^3 cells in 150 μL of the corresponding culture medium and allowed to adhere overnight. For 3D cell culture, Day 10 spheroids were used. Increasing drug concentrations diluted in DMSO (maintaining final DMSO concentration at 0.5% (v/v)) were added. After plate incubations for 24 hours in normoxic (21% O2, 5% CO2, 37 °C) or hypoxic (N2, O2 < 0.3%, 37 °C) conditions, the culture media were removed and 2D and 3D cells were washed with PBS and left to grow for 48 hours in normoxic conditions. Viability of cells cultured in monolayer or spheroids was quantified by AlamarBlue assay. Cytotoxic activity was expressed as the drug concentration that inhibited cell growth by 50% (IC50). Experiments were performed in triplicates. Data are represented as means ± SD. Statistical significance was determined using one-way ANOVA followed by Tukey's post-hoc multiple comparisons test. Results were considered significant at p < 0.05.

[7] = tested on: HEMC-SS chondrosarcoma cells (monolayer); experiment: In vitro proliferation assay (AlamarBlue), HEMC-SS monolayer culture; type: cell-based, human; conditions: for IC50: Homo sapiens; for HCR (hypoxic-cytotoxic ratio) Monolayer: normoxia vs hypoxia IC50
Protocol: Human HEMC-SS chondrosarcoma cell line was obtained from the European Collection of Authenticated Cell Cultures and cultured in DMEM/F12 medium (Life Technologies) supplemented with 10% fetal calf serum (Dutscher) and 4 μg/mL gentamicin.
as §1

[8] = tested on: HEMC-SS cells; experiment: Cell cycle determination and apoptosis (Annexin V) evaluation by flow cytometry; type: cell-based, human
Protocol: At 24 hours before treatment, 1.10^6 HEMC-SS cells were seeded in 6-well plates (Nunc) at 3 mL/well of corresponding culture media. Cells were treated with 8-QA compound at 25 μM, 50 μM, or 100 μM final concentrations for 24 hours, under either normoxic (21% O2, 5% CO2, 37°C) or hypoxic (N2, O2 < 0.3%, N2, 37°C) conditions. After incubation, the cells were harvested by trypsinization. The cell suspension containing both floating and adherent cells was centrifuged (400 g, 8 min at +4°C) in PBS. Cell cycle analyses were carried out by resuspending cells in 500 μL of ribonuclease 1 (1 mg/mL) added with 500 μL of propidium iodide (1 mg/mL) (Sigma Aldrich), and apoptotic cells were detected using the Annexin V-FITC kit (Miltenyi Biotec). The cell cycle distribution and proportion of apoptotic cells were analyzed by flow cytometrey (LSR II flow cytometer, BD Biosciences). Experiments were performed in triplicates. Data are represented as means ± SD. For cell cycle analyses, statistical significance was determined using two-way ANOVA followed by Tukey's post-hoc multiple comparison test. For Annexin V test, significance was determined using two-way ANOVA followed by Bonferroni's post-hoc multiple comparison test.

[9] = tumors sampled one day after last injection
[10] = hypoxia (N2, O2 < 0.3%), read-out: IC50 Spheroids Hypoxia
[11] = normoxia (21% O2), read-out: IC50 Spheroids Normoxia
[12] = hypoxia (N2, O2 < 0.3%), 24 hours exposure then 48 hours in normoxia, read-out: IC50 Monolayer Hypoxia
[13] = normoxia (21% O2), 24 hours exposure then 48 hours in normoxia, read-out: IC50 Monolayer Normoxia

SMILES | Antitumor effect (tumor volume vs controls) [1] | γH2AX-positive cells in pimonidazole-positive hypoxic tumor areas [2] | Mouse weight loss during treatment [4] | Binding to aggrecan (sensorgrams) [5] | Kd [5] | IC50 [6, 10] | IC50 [6, 11] | S/M (spheroid/monolayer cytotoxic ratio) Hypoxia [6] | S/M (spheroid/monolayer cytotoxic ratio) Normoxia [6] | HCR (hypoxic-cytotoxic ratio) Spheroids [6] | IC50 [7, 12] | IC50 [7, 13] | HCR (hypoxic-cytotoxic ratio) Monolayer [7] | further results
Cn1c(COP(=O)(NCCC[N+](C)(C)C)N(CCCl)CCCl)cnc1[N+](=O)[O-] (stereo not shown) [8-QA] | significant antitumor effect | strong increase of γH2AX-positive cells | did not cause any weight loss | dose-dependent binding | 890 µM | 31.8 ± 5.5 µM | 101 ± 32.6 µM | 7.4 | 3.4 | 3.1 | 4.3 ± 1.2 µM | 29.3 ± 8 µM | 6.8 | Tumor growth inhibition (TGI) at D41 ([1]; 47 μmol/kg i.v., q4d x 6, day after last injection (D41)): 62.1%; Tumor weight ([1]; one day after the last injection, normalized to control group): significant decrease; Mitotic index in tumor tissues ([2]; H&E, tumors sampled at D41, 47.0 μmol/kg i.v. q4d x 6): 9.7 ± 9.0 mitosis per 10 fields; Phosphorylated-p53 (S15) in tumors, western blot [2, 9]: significant increased of phosphorylated-p53 (S15); p21 in tumors, western blot [2, 9]: induction of p21; p-CHK1 in treated tumor samples, western blot [2, 9]: no increase of p-CHK1; IC50 [3]: 132 ± 29 µM; Cell cycle distribution in hypoxia ([8]; hypoxia (N2, O2 < 0.3%), 25, 50, 100 μM for 24 hours): high accumulation of cells in S and SubG0/G1 phases; Annexin V positive cells (cell death vs control) ([8]; hypoxia, 100 μM, 24 hours): 4.1 fold; Cell cycle distribution in normoxia ([8]; normoxia (21% O2), 25, 50, 100 μM for 24 hours): increase in S-phase
C[N+](C)(C)CCCNP(=O)(OCc1ccccc1)N(CCCl)CCCl (stereo not shown) [10-QA] | no antitumor effect | did not cause any γH2AX-positive cells | did not cause any weight loss | dose-dependent binding | 4100 µM | > 200 µM | > 200 µM |  |  |  | > 200 µM | > 200 µM |  | IC50 ([7]; read-out: IC50 (cytotoxicity in any of the experimental conditions)): > 200 µM
CCCNP(=O)(OCc1cnc([N+](=O)[O-])n1C)N(CCCl)CCCl (stereo not shown) [compound 8] | no antitumor efficacy | did not cause any γH2AX-positive cells | did not cause any weight loss | no affinity |  | 5.7 ± 1.2 µM | 99.4 ± 5.2 µM | 1.3 | 3.1 | 17.4 | 4.3 ± 1.2 µM | 32.5 ± 4.3 µM | 7.5 | White blood cell count ([4]; 24 hours after the last dose): significant decrease in white blood cell count
